EP0638566B1, “5-Aminoflavone derivatives, their preparation and their use as antibacterial, anti-estrogenic and/or antitumor agent” (KYOWA HAKKO KOGYO CO., LTD., priority 1993, dated 1995)

Columns and labels:
[1] = test system: uterus weight of immature mice; test: Effect against the increase in uterus weight of immature mice; format: in vivo, female BALB/c mice; settings: dose 50 mg/kg, oral, three days, uteri isolated after four days
Method: The effect against the increase in uterus weight of immature mice
Immature female BALB/c mice, 4 weeks age, were divided into two groups and 50 µg of estradiol was subcutaneously administered to the animals of one group in the chest. The test compounds were repeatedly administered orally to each group (8 animals per group) for three days since the date of estradiol administration. After four days, the uteri were isolated and the weight thereof was measured.
In Table 2, "estradiol (-)" represents an estradiol-untreated group and "estradiol (+)" represents an estradiol-treated group.

[2] = test system: Human mammary cancer MCF-7 cell; test: Human mammary cancer MCF-7 cell growth inhibition test (neutral red); format: cell-based; settings: MCF7, MCF-7 cells, medium with 10^-8M estradiol, 72 hours, neutral red, absorbance at 550 nm, read-out: IC50
Method: Human mammary cancer MCF-7 cell growth inhibition test
Each 0.1 ml of MCF-7 cells which had been prepared to 5 x 10^4/ml using a medium (referred to as Medium B hereinafter) prepared by adding 10% bovine fetal serum, 10^-8M estradiol (manufactured by Sigma), 100 units/ml penicillin and 100 µg/ml streptomycin to RPMI1640 medium was distributed in each well of 96 well-microtiter plate. […] Supernatant was removed, each 0.1 ml of Medium B containing 0.02% neutral red was added to the residue, the mixture was cultured at 37 °C for 1 hour in a CO2 gas incubator and the cells were stained by neutral red dye. Supernatant was removed and the residue was washed once with a physiological saline. Then, the dye was extracted with 0.001N hydrochloric acid/30% ethanol and the absorbance at 550 nm was determined with a microplatereader.

[3] = test system: estrogen-dependent human mammary cancer MCF-7; test: Antitumor effects against MCF-7 tumor transplanted in nude mice; format: in vivo, female BALB/c-nu/nu mice; settings: Mus musculus, MCF7; dose 50 mg/kg oral, 5 days per week for two weeks; judgement day 18; read-out: T/C
From the text: Antitumor effects against estrogen-dependent human mammary cancer MCF-7
The tumor fragment (2mm x 2mm x 2mm) of human hormone dependent mammary cancer MCF-7 was transplanted subcutaneously in the flank of female BALB/c-nu/nu mice (Nihon Crea), 7 to 9 weeks age. […] 3 to 4 Weeks after transplantation, mice of the tumor volume of 25 to 200 mm^3 were selected, and the test compounds were orally administered repeatedly to the groups (5 animals per group) for 5 days per a week, for total two weeks. In addition, estradiol propionate was administered again on the date of initial administration of the test compounds. Length and width of the tumor were determined every day, and the tumor volumes were calculated by means of ellipsoid approximation according to the following equation: […] [formula] The tumor volume at initial administration (Vo) and on the day of judgement (V) was calculated, and the tumor growth rate (V/Vo) was calculated. T/C value was obtained as the ratio of V/Vo value of treated group relative to that of control group.

[4] = test system: estrogen-dependent human mammary cancer Br-10; test: Antitumor effects against Br-10 tumor transplanted in nude mice; format: in vivo, female BALB/c-nu/nu mice; settings: dose 25 mg/kg oral, 5 days per week for two to four weeks; judgement day 18
From the text: Antitumor effects against estrogen-dependent human mammary cancer Br-10
The tumor fragment (2mm x 2mm x 2mm) of human hormone dependent mammary cancer Br-10 was transplanted subcutaneously in the flank of female BALB/c-nu/nu mice (Nihon Crea), 7 to 9 weeks age. […] 3 to 4 Weeks after transplantation, mice the tumor volume of which increased to 30 to 150 mm^3 were selected, and the test compounds were orally administered repeatedly to the groups (5 animals per group) for 5 days per a week, for total two to four weeks. Estradiol propionate was additionally administered on the date of initial administration of the test compounds and 14 days after the administration. Length and breadth of the tumor were determined every day, and the tumor volumes were calculated by means of ellipsoid approximation according to the above equation. The tumor volume at initial administration (Vo) and on the day of judgement (V) was calculated, and the tumor growth rate (V/Vo) was calculated. T/C value was obtained as the ratio of V/Vo value of treated group relative to that of control group.

- IC50 [2]: 13 nM
SMILES: Cc1c(F)c(N)c2c(=O)cc(-c3ccc(N)c(F)c3)oc2c1F [Compound 1, 5-Amino-2-(4-amino-3-fluorophenyl)-6,8-difluoro-7-methyl-4H-1-benzopyran-4-one]
- Weight of uterus ([1]; estradiol (+) (50 µg estradiol s.c.)): 38 mg
- Weight of uterus ([1]; estradiol (-) (estradiol-untreated group)): 17 mg
- response vs control in vivo at 50 mg/kg [3]: 6.4%
- T/C [4]: 0.12
